Read-outs that look alike come from different tables or passages of the source.
How the values were obtained:
[1] = molecular target: ADCK4 (Homo sapiens, UniProt Q96D53); details: 1 µM; binder
[2] = molecular target: ABL1(T315I) (Homo sapiens, UniProt P00519, T315I); details: nonphosphorylated; 1 µM; binder
[3] = molecular target: RET(M918T) (Homo sapiens, UniProt P07949, M918T); details: 1 µM; binder
[4] = molecular target: MAP4K4 (Homo sapiens, UniProt O95819); details: 1 µM; binder
[5] = molecular target: MET(Y1235D) (Homo sapiens, UniProt P08581, Y1235D); details: 1 µM; binder
[6] = molecular target: KIT(V559D,T670I) (Homo sapiens, UniProt P10721, T670I/V559D); details: 1 µM; binder
[7] = molecular target: RPS6KA3 (Homo sapiens, UniProt P51812); details: binder
RPS6KA3, sequence (P51812 whole entry): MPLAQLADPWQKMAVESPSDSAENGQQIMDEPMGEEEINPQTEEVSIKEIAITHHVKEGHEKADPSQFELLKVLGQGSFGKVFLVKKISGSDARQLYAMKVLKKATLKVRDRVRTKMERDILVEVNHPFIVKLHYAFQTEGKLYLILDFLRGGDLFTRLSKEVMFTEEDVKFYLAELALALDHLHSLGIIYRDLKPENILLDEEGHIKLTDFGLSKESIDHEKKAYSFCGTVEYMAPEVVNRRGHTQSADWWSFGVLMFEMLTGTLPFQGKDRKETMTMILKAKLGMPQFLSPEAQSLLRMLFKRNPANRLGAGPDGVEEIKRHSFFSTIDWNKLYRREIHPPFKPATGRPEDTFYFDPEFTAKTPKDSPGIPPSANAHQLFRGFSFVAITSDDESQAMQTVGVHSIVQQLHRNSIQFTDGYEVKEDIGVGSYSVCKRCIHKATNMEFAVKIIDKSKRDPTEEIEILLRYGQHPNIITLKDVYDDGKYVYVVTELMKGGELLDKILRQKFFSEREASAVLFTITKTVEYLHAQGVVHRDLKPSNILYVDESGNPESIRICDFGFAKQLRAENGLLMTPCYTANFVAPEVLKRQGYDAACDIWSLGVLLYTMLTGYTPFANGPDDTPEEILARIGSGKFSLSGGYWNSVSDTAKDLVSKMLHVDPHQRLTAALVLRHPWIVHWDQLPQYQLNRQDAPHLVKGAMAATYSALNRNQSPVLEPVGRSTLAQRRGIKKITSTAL

[8] = molecular target: TLK1 (Homo sapiens, UniProt Q9UKI8); details: 1 µM; binder
[9] = molecular target: ERK3 (Homo sapiens, UniProt Q16659); details: 1 µM; binder
[10] = molecular target: CAMK2A (Homo sapiens, UniProt Q9UQM7); details: 1 µM; binder
[11] = molecular target: TIE1 (Homo sapiens, UniProt P35590); details: 1 µM; binder
TIE1, sequence (P35590 whole entry): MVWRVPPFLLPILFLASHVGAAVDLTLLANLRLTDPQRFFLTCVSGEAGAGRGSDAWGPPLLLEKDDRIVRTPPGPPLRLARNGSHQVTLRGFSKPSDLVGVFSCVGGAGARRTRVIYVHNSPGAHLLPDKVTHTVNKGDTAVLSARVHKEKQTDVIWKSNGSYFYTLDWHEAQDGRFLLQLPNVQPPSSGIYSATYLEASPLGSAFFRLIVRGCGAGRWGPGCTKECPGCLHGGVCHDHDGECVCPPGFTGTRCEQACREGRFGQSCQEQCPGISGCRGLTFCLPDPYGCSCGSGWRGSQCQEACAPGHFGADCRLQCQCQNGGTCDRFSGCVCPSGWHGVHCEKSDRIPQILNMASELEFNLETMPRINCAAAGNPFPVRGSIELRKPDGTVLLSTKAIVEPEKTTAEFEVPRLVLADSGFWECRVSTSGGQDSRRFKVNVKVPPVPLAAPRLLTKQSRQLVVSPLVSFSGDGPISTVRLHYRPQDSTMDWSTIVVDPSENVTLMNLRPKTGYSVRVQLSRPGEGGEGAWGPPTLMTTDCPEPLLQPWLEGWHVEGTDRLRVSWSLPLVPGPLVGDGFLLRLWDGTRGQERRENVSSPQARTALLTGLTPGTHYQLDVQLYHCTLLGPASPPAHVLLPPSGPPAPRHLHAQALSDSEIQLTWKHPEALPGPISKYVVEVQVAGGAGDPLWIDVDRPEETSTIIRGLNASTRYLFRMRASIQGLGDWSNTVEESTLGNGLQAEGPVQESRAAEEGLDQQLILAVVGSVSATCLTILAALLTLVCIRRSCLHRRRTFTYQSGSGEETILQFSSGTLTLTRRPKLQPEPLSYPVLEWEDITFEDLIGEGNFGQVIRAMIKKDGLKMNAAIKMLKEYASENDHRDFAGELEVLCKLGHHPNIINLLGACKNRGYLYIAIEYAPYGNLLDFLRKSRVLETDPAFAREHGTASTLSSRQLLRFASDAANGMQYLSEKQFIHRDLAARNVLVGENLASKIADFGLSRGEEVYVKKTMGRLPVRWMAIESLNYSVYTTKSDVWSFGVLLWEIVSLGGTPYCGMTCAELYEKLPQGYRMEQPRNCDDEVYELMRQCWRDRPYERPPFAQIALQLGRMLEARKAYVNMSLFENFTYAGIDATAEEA

[12] = molecular target: WNK2 (Homo sapiens, UniProt Q9Y3S1); details: 1 µM; binder
[13] = molecular target: AXL (Homo sapiens, UniProt P30530); details: 1 µM; binder
[14] = molecular target: ULK1 (Homo sapiens, UniProt O75385); details: 1 µM; binder
[15] = molecular target: CAMKK1 (Homo sapiens, UniProt Q8N5S9); details: 1 µM; binder
[16] = molecular target: LRRK2(G2019S) (Homo sapiens, UniProt Q5S007, G2019S); details: 1 µM; binder
[17] = molecular target: MAP3K15 (Homo sapiens, UniProt Q6ZN16); details: 1 µM; binder
[18] = molecular target: INSRR (Homo sapiens, UniProt P14616); details: 1 µM; binder
INSRR, sequence (P14616 whole entry): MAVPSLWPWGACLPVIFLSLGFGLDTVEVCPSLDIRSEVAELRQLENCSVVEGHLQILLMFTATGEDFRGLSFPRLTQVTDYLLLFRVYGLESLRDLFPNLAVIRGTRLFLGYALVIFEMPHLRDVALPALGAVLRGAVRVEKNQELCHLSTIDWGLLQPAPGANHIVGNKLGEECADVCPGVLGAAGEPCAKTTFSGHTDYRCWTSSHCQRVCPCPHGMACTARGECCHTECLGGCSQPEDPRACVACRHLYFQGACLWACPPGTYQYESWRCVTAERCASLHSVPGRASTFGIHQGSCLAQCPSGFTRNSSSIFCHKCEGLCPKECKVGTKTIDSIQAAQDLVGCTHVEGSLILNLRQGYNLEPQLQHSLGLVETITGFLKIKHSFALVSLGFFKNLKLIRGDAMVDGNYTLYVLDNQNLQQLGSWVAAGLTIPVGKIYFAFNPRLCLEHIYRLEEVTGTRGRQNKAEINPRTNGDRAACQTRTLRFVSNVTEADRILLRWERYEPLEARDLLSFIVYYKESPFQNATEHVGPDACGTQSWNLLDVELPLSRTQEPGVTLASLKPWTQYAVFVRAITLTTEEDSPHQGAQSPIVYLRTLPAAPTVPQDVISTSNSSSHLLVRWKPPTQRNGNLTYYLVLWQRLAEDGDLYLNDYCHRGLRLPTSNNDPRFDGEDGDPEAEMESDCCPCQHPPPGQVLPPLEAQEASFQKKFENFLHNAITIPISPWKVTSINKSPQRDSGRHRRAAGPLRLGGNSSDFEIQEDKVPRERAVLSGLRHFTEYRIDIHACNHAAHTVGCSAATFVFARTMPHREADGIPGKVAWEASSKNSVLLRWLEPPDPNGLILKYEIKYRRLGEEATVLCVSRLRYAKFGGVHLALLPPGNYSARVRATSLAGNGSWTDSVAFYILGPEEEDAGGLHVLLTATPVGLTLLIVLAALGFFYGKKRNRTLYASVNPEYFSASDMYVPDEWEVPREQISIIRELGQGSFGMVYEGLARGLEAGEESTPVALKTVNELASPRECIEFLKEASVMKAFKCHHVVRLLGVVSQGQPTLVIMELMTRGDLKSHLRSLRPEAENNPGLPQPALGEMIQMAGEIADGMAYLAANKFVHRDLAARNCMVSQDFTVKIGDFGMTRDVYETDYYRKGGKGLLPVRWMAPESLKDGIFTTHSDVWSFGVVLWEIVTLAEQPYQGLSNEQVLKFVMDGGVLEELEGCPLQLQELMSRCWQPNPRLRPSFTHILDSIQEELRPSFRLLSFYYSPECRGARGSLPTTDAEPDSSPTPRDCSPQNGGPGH

[19] = molecular target: ABL1(M351T) (Homo sapiens, UniProt P00519, M351T); details: phosphorylated; 1 µM; binder
[20] = molecular target: SYK (Homo sapiens, UniProt P43405); details: 1 µM; binder
[21] = molecular target: CSF1R-autoinhibited (Homo sapiens, UniProt P07333); details: 1 µM; binder
[22] = molecular target: MAPKAPK2 (Homo sapiens, UniProt P49137); details: 1 µM; binder
MAPKAPK2, sequence (P49137 whole entry): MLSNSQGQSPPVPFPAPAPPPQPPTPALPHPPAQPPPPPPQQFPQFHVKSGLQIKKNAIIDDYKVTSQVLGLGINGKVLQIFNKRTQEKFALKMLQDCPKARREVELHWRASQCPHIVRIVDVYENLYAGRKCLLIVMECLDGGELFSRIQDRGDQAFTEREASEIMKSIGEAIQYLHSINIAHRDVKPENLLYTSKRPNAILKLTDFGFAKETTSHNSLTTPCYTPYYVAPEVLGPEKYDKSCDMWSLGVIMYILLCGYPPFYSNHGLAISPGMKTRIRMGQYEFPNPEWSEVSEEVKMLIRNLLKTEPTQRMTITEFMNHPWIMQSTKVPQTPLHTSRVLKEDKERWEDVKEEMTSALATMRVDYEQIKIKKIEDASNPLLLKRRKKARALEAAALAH

[23] = molecular target: PRKR (Homo sapiens, UniProt P19525); details: 1 µM; binder
[24] = molecular target: PAK4 (Homo sapiens, UniProt O96013); details: 1 µM; binder
[25] = molecular target: DRAK2 (Homo sapiens, UniProt O94768); details: 1 µM; binder
[26] = molecular target: MEK5 (Homo sapiens, UniProt Q13163); details: 1 µM; binder
MEK5, sequence (Q13163 whole entry): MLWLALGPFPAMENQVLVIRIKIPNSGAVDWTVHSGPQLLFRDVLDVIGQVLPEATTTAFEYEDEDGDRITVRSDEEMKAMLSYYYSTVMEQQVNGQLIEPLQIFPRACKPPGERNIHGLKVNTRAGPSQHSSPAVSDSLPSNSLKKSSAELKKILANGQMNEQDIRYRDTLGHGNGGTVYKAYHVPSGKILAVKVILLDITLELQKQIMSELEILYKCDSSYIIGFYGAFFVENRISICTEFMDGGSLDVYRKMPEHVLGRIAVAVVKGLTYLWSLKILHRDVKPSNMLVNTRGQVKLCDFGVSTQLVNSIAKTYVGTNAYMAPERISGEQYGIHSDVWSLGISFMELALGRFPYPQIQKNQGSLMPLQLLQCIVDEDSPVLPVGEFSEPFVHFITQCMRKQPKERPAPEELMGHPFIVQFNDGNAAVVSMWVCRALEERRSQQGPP

[27] = molecular target: BMPR2 (Homo sapiens, UniProt Q13873); details: 1 µM; binder
[28] = molecular target: ERBB3 (Homo sapiens, UniProt P21860); details: 1 µM; binder
[29] = molecular target: RPS6KA6 (Homo sapiens, UniProt Q9UK32); details: binder
RPS6KA6, sequence (Q9UK32 whole entry): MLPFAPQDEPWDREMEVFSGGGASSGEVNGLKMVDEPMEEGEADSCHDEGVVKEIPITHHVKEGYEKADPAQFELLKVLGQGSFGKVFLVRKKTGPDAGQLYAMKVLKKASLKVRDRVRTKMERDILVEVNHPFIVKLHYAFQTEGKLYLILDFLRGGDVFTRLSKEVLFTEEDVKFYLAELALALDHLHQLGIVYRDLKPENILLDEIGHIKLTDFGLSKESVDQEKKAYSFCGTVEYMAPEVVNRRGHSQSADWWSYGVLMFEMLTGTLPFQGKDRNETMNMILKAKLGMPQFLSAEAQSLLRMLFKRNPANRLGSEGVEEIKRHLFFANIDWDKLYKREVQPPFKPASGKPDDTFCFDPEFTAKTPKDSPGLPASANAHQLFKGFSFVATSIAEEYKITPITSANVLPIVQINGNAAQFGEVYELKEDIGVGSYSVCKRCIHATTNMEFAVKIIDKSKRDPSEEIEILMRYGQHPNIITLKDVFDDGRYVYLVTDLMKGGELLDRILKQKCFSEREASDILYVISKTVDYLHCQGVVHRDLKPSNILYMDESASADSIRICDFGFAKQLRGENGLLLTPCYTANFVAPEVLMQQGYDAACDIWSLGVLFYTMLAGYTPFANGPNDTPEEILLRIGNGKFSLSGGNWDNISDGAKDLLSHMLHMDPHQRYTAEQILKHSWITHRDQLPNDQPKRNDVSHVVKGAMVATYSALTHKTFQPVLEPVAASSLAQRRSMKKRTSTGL

CNc1ncc2cc(-c3ccc(-c4cccc(C)n4)cc3Cl)c(=O)n(C[C@H]3OC[C@H](N)CO3)c2n1 [compound 6, G-5555]
Percent Control [1]: 100% | Percent Control [2]: 100% | Percent Control [3]: 100% | Percent Control [4]: 100% | Percent Control [5]: 93% | Percent Control [6]: 100% | Percent Control ([7]; Kin.Dom.1 N-terminal): 65% | Percent Control ([7]; Kin.Dom.2 C-terminal, 1 µM): 63% | Percent Control [8]: 100% | Percent Control [9]: 100% | Percent Control [10]: 88% | Percent Control [11]: 94% | Percent Control [12]: 88% | Percent Control [13]: 96% | Percent Control [14]: 85% | Percent Control [15]: 100% | Percent Control [16]: 100% | Percent Control [17]: 48% | Percent Control [18]: 100% | Percent Control [19]: 100% | Percent Control [20]: 100% | Percent Control [21]: 84% | Percent Control [22]: 100% | Percent Control [23]: 94% | Percent Control [24]: 77% | Percent Control [25]: 100% | Percent Control [26]: 0.2% | Percent Control [27]: 100% | Percent Control [28]: 86% | Percent Control ([29]; Kin.Dom.1 N-terminal): 95% | Percent Control ([29]; Kin.Dom.2 C-terminal, 1 µM): 92%

— paper doi:10.1101/2021.04.08.439011v1 (biorxiv, 2021)
